Source: article PMC12557367, ““Precision on Two Wheels”–Structural Refinement of ^64Cu- and ^68Ga-Labeled Bicyclic Peptides Targeting Nectin‑4 for Improved Tumor Imaging: From Preclinical Development to First-in-Human Application” (Journal of Medicinal Chemistry, 2025)
Numbered stars: 1 amine (or outer) side, 2 acyl side, 3 side chain; on linkers, the order of the positions; unused ones are H or OH. Bridge positions count the residues as written; N and C are the ends. Square brackets hold non-standard residues; d marks the D form. Peptide text beside a SMILES is read from it. * marks the point of attachment. DOTA = O=C(O)CN1CCN(CC(=O)O)CCN(CC(=O)*)CCN(CC(=O)O)CC1; TATA = O=C(CC[*:1])N1CN(C(=O)CC[*:2])CN(C(=O)CC[*:3])C1; X1 = O=C(O)CN1CCN(CC(=O)O)CCN([C@H](CCC(=O)*)C(=O)O)CC1; 1Nal = N[C@@H](Cc1cccc2ccccc12)C(=O)O; 2Nal = N[C@@H](Cc1ccc2ccccc2c1)C(=O)O; Hyp = O=C(O)[C@@H]1C[C@@H](O)CN1; hArg = N=C(N)NCCCC[C@H](N)C(=O)O; hSer = N[C@@H](CCO)C(=O)O; Nle = CCCC[C@H](N)C(=O)O

What was measured:
[1] = target: T1, recombinant human nectin-4 (Homo sapiens, UniProt Q96NY8); test: FA-based competitive binding assay with probe 1a; conditions: for Hill coefficient n: competitive binding curve, variable slope
T1 construct: close to the value determined for the complete extracellular domain of nectin-4 (0.94 nM); purchased R&D Systems 2659-N4
T1 sequence (Q96NY8 32-349 limits assumed): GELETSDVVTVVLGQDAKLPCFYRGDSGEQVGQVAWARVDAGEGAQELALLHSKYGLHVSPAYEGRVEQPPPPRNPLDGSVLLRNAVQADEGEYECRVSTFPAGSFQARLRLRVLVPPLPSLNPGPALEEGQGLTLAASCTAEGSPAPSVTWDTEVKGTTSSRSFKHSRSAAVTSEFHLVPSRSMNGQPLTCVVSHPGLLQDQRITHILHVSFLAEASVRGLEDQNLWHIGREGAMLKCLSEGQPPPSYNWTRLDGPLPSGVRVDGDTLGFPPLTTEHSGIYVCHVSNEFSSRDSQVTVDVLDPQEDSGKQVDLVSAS

HT-1376 cells = test: Saturation binding assay on intact cells; type: cell-based, human; conditions: intact HT-1376 cells, ±SD; for Kd: 60 min, PBS wash, apparent
Procedure: For the saturation binding assay, total and nonspecific binding were determined as described above using 10 different radioligand concentrations ([…]) prepared by serial 1:1 dilution. Plots of “total binding” = f(radioligand) were analyzed by nonlinear regressions using the model of “one site-total, accounting for ligand depletion” as implemented in GraphPad Prism, and Plots of “nonspecific binding” = f(radioligand) were analyzed by linear regressions.

nectin-4 = target: nectin-4; set-up: method as in Duan et al.; conditions: SPR, buffer pH 4.0; ref Duan et al.; read-out: binding affinity; cited from earlier work
[2] = Chromatographic hydrophobicity index at immobilized artificial membrane (CHI IAM7.4) by HPLC; type: physicochemical; conditions: nonlabeled peptide, pH 7.4
Procedure: Consequently, the CHI IAM7.4 values indicate that unfavorable pharmacokinetic behavior due to nonspecific binding is not to be expected.
All commercial reagents and solvents were used without further purification, unless otherwise specified. […] The purity of compound 5, which bears selenomethionine, was lower due to the lability to oxidation (as discussed above). The HPLC-based determination of chromatographic hydrophobicity indices at an immobilized artificial membrane was performed as previously described according to the method developed by Valko et al.

[3] = type: in vitro ADME; conditions: 24 h
Procedure: Human plasma was collected as previously described. For assessing the stability in human plasma, 10 μL (10 MBq) of the labeling solution of [ ^ 64 Cu]-Cu-1e, [ ^ 64 Cu]-Cu-3a, or [ ^ 64 Cu]-Cu-4 were added to 90 μL of human plasma, and the mixture was incubated at 37 °C for up to 24 h. At distinct time points (1, 2, 4, and 24 h), an aliquot of 20 μL was withdrawn and diluted with 60 μL of a mixture named “Supersol” (composition as described above). This was followed by centrifugation at 16,100g for 2 min. The supernatant was analyzed by radio-HPLC (the same system as used for analyzing the ^64Cu-labelings).

[4] = target: T2, recombinant N-terminal Ig-like V domain of nectin-4 (Homo sapiens, UniProt Q96NY8); test: FA direct binding of probe 1a to Ig-like V domain
T2 construct: probe 1a to the N-terminal Ig-like V domain of nectin-4 (Acro Biosystems, NE4-H82Ea); purchased Acro Biosystems NE4-H82Ea
T2 sequence (Q96NY8 32-144 limits assumed): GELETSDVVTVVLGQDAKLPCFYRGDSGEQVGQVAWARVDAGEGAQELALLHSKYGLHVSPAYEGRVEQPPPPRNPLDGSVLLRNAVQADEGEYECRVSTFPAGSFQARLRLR
Description: For direct binding of probe 1a to the N-terminal Ig-like V domain of nectin-4 (Acro Biosystems, NE4-H82Ea), the same procedure as described previously was applied.

[5] = target: T1, recombinant human nectin-4; test: Fluorescence anisotropy (FA) direct binding of fluorescent probes; conditions: 1 nM probe
Description: For characterizing the binding affinity of the bicyclic peptides toward nectin-4, we envisaged a fluorescence anisotropy-based competitive binding assay. Mudd et al. also used such an assay for the development of the bicycle drug conjugate BT8009. Herein, the peptidic scaffold of BT8009 was used as a basis for the required fluorescent nectin-4-ligand (probe) with either 6-TAMRA (1a) or 6-FAM (1b) being attached at the N-terminal Cys residue. […] In this context, the binding of the probe to nectin-4 was started by the addition of nectin-4, followed by continuous fluorescence measurements over 20 min. It is worth noting that a slight initial increase in the FA values could be observed for both probes (FA values at <300 s in Figure S1); however, this putative time-dependent association appeared to be too fast to analyze it. […]
All measurements were conducted at 37 °C over 1200 s (interval of 37 s) using a Cytation 5 multimode microplate reader (BioTek Instruments, Software Gen 5) and black 96-well microplates (BRANDplates with F-bottom wells). […] The FA (r) was calculated by Gen 5 software from the measured parallel and perpendicular fluorescence intensities (I ∥ and I ⊥, respectively) according to eq using a G factor of 0.87 (preset value). r=I∥−G×I⊥/I∥+2G×I⊥ 1 […]

factor less potent than DOTA conjugate 1f ([1]; FA K d ratio) [fold]	Hill coefficient n [1]	CHI IAM7.4 [2]	chemical and proteolytic stability in human plasma [3]	Kd [4] [nM]	dynamic range (ΔFA = mA of bound probe – mA of free probe) [5]	Compound	Kd (HT-1376 cells; ^68Ga-labeled ligand) [nM]	B max (fmol/mg) (HT-1376 cells; ^68Ga-labeled ligand)	Kd (nectin-4) [nM]	Kd (HT-1376 cells; ^64Cu-labeled ligand) [nM]	B max (fmol/mg) (HT-1376 cells; ^64Cu-labeled ligand)
26	2.53	–	–	–	–	CSCC[C@@H]1NC(=O)[C@@H]2CSCCC(=O)N3CN(CN(C3)C(=O)CCSC[C@H](NC(=O)CN3CCN(CC(=O)O)CCN(CC(=O)O)CCN(CC(=O)O)CC3)C(=O)N3CCC[C@H]3C(=O)N[C@@H](Cc3ccc4ccccc4c3)C(=O)N[C@H](CC(=O)O)C(=O)N2)C(=O)CCSC[C@@H](C(=O)O)NC(=O)[C@H](Cc2c[nH]c3ccccc23)NC(=O)[C@@H]2C[C@@H](O)CN2C(=O)[C@@H]2CCCN2C(=O)[C@H]([C@@H](C)O)NC(=O)[C@H](CO)NC(=O)[C@H](Cc2c[nH]c3ccccc23)NC(=O)[C@H](CC(=O)O)NC(=O)[C@H](CCCNC(=N)N)NC1=O [8d, reference compound] ({DOTA}-CP[2Nal][dD]CMRDWSTP[Hyp]WC-OH; linker 1-5-15 via TATA)	222	291 (±77.9) fmol/mg	23.7	–	–
–	1.30	20.6	No signs of degradation	–	–	CCCC[C@@H]1NC(=O)[C@@H]2CSCCC(=O)N3CN(CN(C3)C(=O)CCSC[C@H](NC(=O)CC[C@H](C(=O)O)N3CCN(CC(=O)O)CCN(CC(=O)O)CC3)C(=O)N3CCC[C@H]3C(=O)N[C@@H](Cc3cccc4ccccc34)C(=O)N[C@H](CC(=O)O)C(=O)N2)C(=O)CCSC[C@@H](C(N)=O)NC(=O)[C@H](Cc2c[nH]c3ccccc23)NC(=O)[C@@H]2C[C@@H](O)CN2C(=O)[C@@H]2CCCN2C(=O)[C@H]([C@@H](C)O)NC(=O)[C@H](CO)NC(=O)[C@H](Cc2c[nH]c3ccccc23)NC(=O)[C@H](CC(=O)O)NC(=O)[C@H](CCCCNC(=N)N)NC1=O [3a] (X1-CP[1Nal][dD]C[Nle][hArg]DWSTP[Hyp]WC-NH2; linker 1-5-15 via TATA)	–	–	–	–	–
–	1.52	19.9	No signs of degradation	–	–	CSCC[C@@H]1NC(=O)[C@@H]2CSCCC(=O)N3CN(CN(C3)C(=O)CCSC[C@H](NC(=O)CC[C@H](C(=O)O)N3CCN(CC(=O)O)CCN(CC(=O)O)CC3)C(=O)N3CCC[C@H]3C(=O)N[C@@H](Cc3cccc4ccccc34)C(=O)N[C@H](CC(=O)O)C(=O)N2)C(=O)CCSC[C@@H](C(N)=O)NC(=O)[C@H](Cc2c[nH]c3ccccc23)NC(=O)[C@@H]2C[C@@H](O)CN2C(=O)[C@@H]2CCCN2C(=O)[C@H]([C@@H](C)O)NC(=O)[C@H](CO)NC(=O)[C@H](Cc2c[nH]c3ccccc23)NC(=O)[C@H](CC(=O)O)NC(=O)[C@H](CCCCNC(=N)N)NC1=O [1e]	8.7	1345 (±52.5) fmol/mg	–	7.15	780 (±23.9) fmol/mg

Continued, molecule first:

Compound	factor less potent than DOTA conjugate 1f ([1]; FA K d ratio) [fold]	Hill coefficient n [1]	CHI IAM7.4 [2]	chemical and proteolytic stability in human plasma [3]	Kd [4] [nM]	dynamic range (ΔFA = mA of bound probe – mA of free probe) [5]	Kd (HT-1376 cells; ^68Ga-labeled ligand) [nM]	B max (fmol/mg) (HT-1376 cells; ^68Ga-labeled ligand)	Kd (nectin-4) [nM]	Kd (HT-1376 cells; ^64Cu-labeled ligand) [nM]	B max (fmol/mg) (HT-1376 cells; ^64Cu-labeled ligand)
COCC[C@@H]1NC(=O)[C@@H]2CSCCC(=O)N3CN(CN(C3)C(=O)CCSC[C@H](NC(=O)CC[C@H](C(=O)O)N3CCN(CC(=O)O)CCN(CC(=O)O)CC3)C(=O)N3CCC[C@H]3C(=O)N[C@@H](Cc3cccc4ccccc34)C(=O)N[C@H](CC(=O)O)C(=O)N2)C(=O)CCSC[C@@H](C(N)=O)NC(=O)[C@H](Cc2c[nH]c3ccccc23)NC(=O)[C@@H]2C[C@@H](O)CN2C(=O)[C@@H]2CCCN2C(=O)[C@H]([C@@H](C)O)NC(=O)[C@H](CO)NC(=O)[C@H](Cc2c[nH]c3ccccc23)NC(=O)[C@H](CC(=O)O)NC(=O)[C@H](CCCCNC(=N)N)NC1=O [compound 4] (X1-CP[1Nal][dD]C[hSer](Me)[hArg]DWSTP[Hyp]WC-NH2; linker 1-5-15 via TATA)	–	1.72	20.2	No signs of degradation	–	–	13.1	–	–	6.06	–
CSCC[C@@H]1NC(=O)[C@@H]2CSCCC(=O)N3CN(CN(C3)C(=O)CCSC[C@H](NC(=O)c3ccc(C(=O)O)c(-c4c5ccc(=[N+](C)C)cc-5oc5cc(N(C)C)ccc45)c3)C(=O)N3CCC[C@H]3C(=O)N[C@@H](Cc3cccc4ccccc34)C(=O)N[C@H](CC(=O)O)C(=O)N2)C(=O)CCSC[C@@H](C(N)=O)NC(=O)[C@H](Cc2c[nH]c3ccccc23)NC(=O)[C@@H]2C[C@@H](O)CN2C(=O)[C@@H]2CCCN2C(=O)[C@H]([C@@H](C)O)NC(=O)[C@H](CO)NC(=O)[C@H](Cc2c[nH]c3ccccc23)NC(=O)[C@H](CC(=O)O)NC(=O)[C@H](CCCCNC(=N)N)NC1=O [1a]	–	–	–	–	1.3	100 (±3) mA	–	–	–	–	–
